# Read-outs that look alike come from different tables or passages of the source. No end group written: not given here.
# Legend:
# [1] = tested on: washed human erythrocytes; assay: Hemolysis assay, washed human erythrocytes
# [2] = tested on: human whole blood; settings: human whole blood, 60 min 37 °C; for Calculated hemolysis ratio: peptides 100 μM, neg. PBS, 3 x 2 replicates
# [3] = tested on: E. coli
# [4] = tested on: rabbit erythrocytes; settings: Table S4: washed rabbit erythrocytes, OD 405 nm, AMPs 100 μM, 1 hour 37 °C, pos. 10% Triton X-100, neg. PBS; 3 x 2 replicates
# Text: (§1) Cytotoxicity studies are important during characterization of novel compounds or materials intended for interactions within human biological systems in vivo. Evaluation of the extent to which the compound induces disruption of the membrane of erythrocytes (red blood cells), thereby causing release of cellular content, often constitutes an initial step in such cytotoxicity assessments. The assay used in this context is generally referred to as the hemolysis assay, which has the advantages of being cheap, accessible, and simple to perform. Blood is drawn from a human or an animal, and next, the washed erythrocytes are incubated together with the compound or material under investigation. If the compound causes hemolysis, hemoglobin (along with other cellular constituents) will be released into the supernatant.
# (§2) Blood from mice, rats, and rabbits was provided by the Department of Comparative Medicine at Oslo University Hospital (Marianne Aannestad). For mice and rats, the blood was collected from the heart by using 25 G and 21 G needles, respectively, whereas for rabbits, the blood was collected by free bleed through the ear using a yellow neoflon (24 G). All animals were wild type and anesthetized prior to the procedure.
# (§3) All blood was collected in Lithium Heparin tubes 4 mL (Greiner Bio-One, Kremsmünster, Austria) or Coagulation sodium citrate 3.2% tubes 3 mL (Greiner Bio-One).
# (§4) AMP 2 contained an N-terminal hexanoic acid moiety, whereas all peptides contained amidated C-termini. These three peptides were synthesized by Genscript Inc. (Piscataway, NJ, USA), and stock solutions of 1 mg/mL were made from the purchased powders. […] All peptides were diluted to yield a 100 μM final concentration in the hemolysis assays.
# (§5) Triton X-100 (T8787) and Tween-20 (P2287) detergents were purchased from Sigma Aldrich and diluted to obtain 10% stock solutions by weighing (w/v). A sodium Dodecyl Sulfate (SDS) 10% solution was purchased from Invitrogen (Waltham, MA, USA, 15553027). All subsequent dilutions annotated in figures were made from these stocks.
# (§6) As soon as possible after phlebotomy, the blood samples were centrifuged at 1700× g for 5 min. The supernatant was removed by aspiration and 2 mL of PBS pH 7 was added. The washing step was repeated three times or until the supernatant was clear. After final aspiration, the remaining pellet was diluted 1:100 in PBS pH 7 to obtain a 1% erythrocyte suspension (or 1:100, 1:50, and 1:20 for assays testing the effect of erythrocyte concentration). For experiments using whole blood, the washing steps were not performed, but downstream experimentation was identical. For experiments performed with 96-well plates, 50 μL of test compound, water, or detergent were mixed with 50 μL of blood sample (1% erythrocyte suspension or whole blood). For experiments using larger volumes, 250 μL of test compound, water, or detergent were mixed with 250 μL blood sample in an Eppendorf tube. Samples were subsequently incubated at 37 °C for 60 min (or 15, 30, 60, 90, or 120 min for assays evaluating the effect of incubation time). After incubation, the plates/tubes were centrifuged at 1700× g for 5 min, and then 50 μL of the supernatants were transferred to transparent, flat-bottom 96-well plates (Anicrin, A013418). Finally, absorption was measured at 405, 530, and 570 nm in a Victor Nivo Multimode microplate reader (Perkin Elmer, Waltham, MA, USA).
# [5] = tested on: rat erythrocytes; settings: Table S4: washed rat erythrocytes, OD 405 nm, AMPs 100 μM, 1 hour 37 °C, pos. 10% Triton X-100, neg. PBS; 3 x 2 replicates
# Text: as §1, §2, §3, §4, §5, §6
# [6] = tested on: rabbit whole blood; settings: cf. Tables S3 and S4; 100 μM
# Text: as §1, §2, §3, §4, §5, §6
# [7] = tested on: mouse erythrocytes; settings: Table 1, 1% erythrocytes, 100 µM
# Text: as §1, §2, §3, §4, §5, §6
# [8] = cited from earlier work
# Method: OD measurements of human whole blood treated with hemolyzing agents or AMPs at 405 nm (A), 530 nm (B), and 570 nm (C) were recorded (Figure 6) and HRs calculated (Table 5). For comparison, we also included the two previously well-characterized AMPs melittin and polymyxin B, which exert high and low cytotoxicity, respectively. […] From 530 and 570 nm measurements, the expected conce ...
# [9] = tested on: washed human erythrocytes; assay: Flow cytometry of treated erythrocytes with live/dead amine-reactive stain; assay type: cell-based; settings: washed human erythrocytes treated 60 minutes, AMPs 100 μM, amine-reactive dye 488, flow cytometry 533/30 nm
# Method: Briefly, a 1% washed erythrocyte solution was diluted to ~10^5 cells/mL and 0.4% Trypan blue (1:1 ratio) was added before 10 μL of the stained cell suspension was added to the Countess cell counting chamber slide. After a 30 s incubation, the slide was inserted into the instrument for automatic cell counting.
# The Countess II automated cell counter (see above) was used to adjust the negative control sample to ~10^5 cells/mL and to subsequently dilute all samples by the same factor. Then, 0.5 μL of live/dead amine-reactive dye 488 (Fisher Scientific, Waltham, MA, USA) was added to 0.5 mL cell suspension and incubated for 30 min protected from light. Subsequently, the samples were washed twice with PBS pH 7 containing 1% bovine serum albumin (BSA), and finally resuspended in PBS pH 7 with 1% BSA. Cells were next counted, and the fluorescence measured using the 533/30 nm filter in an Accuri C6 flow cytometer (BD Biosciences, Franklin Lakes, NJ, USA).
# [10] = 10% detergent, highest absorbance
# [11] = human individual # 1, 1% erythrocytes, AMPs 100 µM, 60 min 37 °C, 405 nm, pos. 10% Triton X, neg. PBS, 3 x 2 replicates
# [12] = human individual # 2, 1% erythrocytes, AMPs 100 µM, 60 min 37 °C, 405 nm, pos. 10% Triton X, neg. PBS, 3 x 2 replicates
# [13] = human individual # 3, 1% erythrocytes, AMPs 100 µM, 60 min 37 °C, 405 nm, pos. 10% Triton X, neg. PBS, 3 x 2 replicates
# [14] = human individual # 4, 1% erythrocytes, AMPs 100 µM, 60 min 37 °C, 405 nm, pos. 10% Triton X, neg. PBS, 3 x 2 replicates
# [15] = human individual # 5, 1% erythrocytes, AMPs 100 µM, 60 min 37 °C, 405 nm, pos. 10% Triton X, neg. PBS, 3 x 2 replicates
# [16] = human individual # 6, 1% erythrocytes, AMPs 100 µM, 60 min 37 °C, 405 nm, pos. 10% Triton X, neg. PBS, 3 x 2 replicates
# [17] = human individual # 7, 1% erythrocytes, AMPs 100 µM, 60 min 37 °C, 405 nm, pos. 10% Triton X, neg. PBS, 3 x 2 replicates
# [18] = human individual # 8, 1% erythrocytes, AMPs 100 µM, 60 min 37 °C, 405 nm, pos. 10% Triton X, neg. PBS, 3 x 2 replicates
# [19] = human individual # 9, 1% erythrocytes, AMPs 100 µM, 60 min 37 °C, 405 nm, pos. 10% Triton X, neg. PBS, 3 x 2 replicates
# [20] = human individual # 10, 1% erythrocytes, AMPs 100 µM, 60 min 37 °C, 405 nm, pos. 10% Triton X, neg. PBS, 3 x 2 replicates
# [21] = OD 405 nm (signal saturated), pos. 10% SDS
# [22] = OD 570 nm, pos. 10% Triton X-100 (table title; text says 10% SDS)
compound,measurement,setting,value
"CCCCCCCCCCCCOS(=O)(=O)[O-].[Na+] [SDS, Sodium Dodecyl Sulfate, reference compound]",Peak OD of free hemoglobin,"[1]; at 0.02% detergent, human erythrocytes, decreases at higher concentrations (Figure S3)","0,8"
same,Absorbance of free hemoglobin at 530 nm,[2]; [10],2.2
same,Absorbance of free hemoglobin at 570 nm,[2]; [10],1.7
MNLVDRAILIRKRRRAALQLRDKVLRYLK-NH2 [AMP 1],Fold difference in HR at 120 min incubation relative to the shortest incubation times,"[1]; 1% washed human erythrocytes, 405 nm, Table 4",1.65 fold
same,Calculated hemolysis ratio,[1]; [11],21.9 ± 4%
same,Calculated hemolysis ratio,[1]; [12],23 ± 2.8%
same,Calculated hemolysis ratio,[1]; [13],23.7 ± 2.1%
same,Calculated hemolysis ratio,[1]; [14],21.3 ± 3%
same,Calculated hemolysis ratio,[1]; [15],19.7 ± 3.7%
same,Calculated hemolysis ratio,[1]; [16],19.6 ± 4.7%
same,Calculated hemolysis ratio,[1]; [17],18.8 ± 4%
same,Calculated hemolysis ratio,[1]; [18],21.7 ± 8.6%
same,Calculated hemolysis ratio,[1]; [19],22.9 ± 6.8%
same,Calculated hemolysis ratio,[1]; [20],25.1 ± 13%
same,Observed hemolytic properties (qualitative),[1]; reason for choice of the AMPs,medium
same,Minimum inhibitory concentration (E. coli),[3],2 µM
same,Hemolysis ratio,[4],7.1 +/- 1.1%
same,Hemolysis ratio,[5],12.9 +/- 1.7%
same,Fold decrease of hemolytic effect in rabbit whole blood vs washed rabbit erythrocytes,[6],slightly increased hemolytic effect
same,HR in mouse sample compared to rabbit sample,[7],over four times higher
"Polymyxin B [PMB, reference compound]",Cytotoxicity (qualitative),[8],low
same,Calculated hemolysis ratio,[2]; [21],3.1 ± 1.1%
same,Calculated hemolysis ratio,"[2]; OD 530 nm, pos. 10% SDS",3 ± 2.4%
same,Calculated hemolysis ratio,[2]; [22],4.5 ± 1.8%
Tween-20 [reference compound],Blood clotting in whole blood,[2]; melittin 100 μM,tendency of the blood to clot at higher Tween concentrations
"O [dH2O, distilled water]",Calculated hemolysis ratio,"[1]; 1% washed human erythrocytes, OD 530 nm, peptides 100 μM, 60 min 37 °C, pos. 10% Triton X-100, neg. PBS, 3 x 2 replicates",67.6 ± 8.7%
same,Calculated Hemolysis (%),"[1]; 2% pooled human erythrocytes, AMPs 100 µM, 60 min 37 °C, 405 nm, pos. 10% Triton X-100, neg. PBS, 3 x 2 replicates",27.1 ± 2.7%
same,Calculated Hemolysis (%),"[1]; 5% pooled human erythrocytes, AMPs 100 µM, 60 min 37 °C, 405 nm, pos. 10% Triton X-100, neg. PBS, 3 x 2 replicates",22.7 ± 9%
same,Calculated hemolysis ratio,"[1]; Table 2: pooled blood from all 10 individuals, 1% erythrocytes, AMPs 100 µM, 60 min 37 °C, 405 nm, pos. 10% Triton X, neg. PBS, 3 x 2 replicates",32.6 ± 7.3%
same,Calculated Hemolysis (%),"[1]; Table 3: 1% pooled human erythrocytes, AMPs 100 µM, 60 min 37 °C, 405 nm, pos. 10% Triton X-100, neg. PBS, 3 x 2 replicates",32.6 ± 7.3%
same,Calculated hemolysis ratio,"[1]; Table 4: incubation 60 min, 37 °C, 1% human erythrocytes, AMPs 100 µM, 405 nm, pos. 10% Triton X-100, neg. PBS, 3 biological x 2 technical replicates",37.1 ±14.2%
same,Calculated hemolysis ratio,"[1]; Table 6: 1% washed human erythrocytes, OD 405 nm, peptides 100 μM, 60 min 37 °C, pos. 10% Triton X-100, neg. PBS, 3 x 2 replicates",73.9 ± 7.5%
same,Calculated hemolysis ratio,[1]; [11],38 ± 12.3%
same,Calculated hemolysis ratio,[1]; [12],57.7 ± 12.2%
same,Calculated hemolysis ratio,[1]; [13],50.8 ± 8.8%
same,Calculated hemolysis ratio,[1]; [14],47.2 ± 5.6%
same,Calculated hemolysis ratio,[1]; [15],38.8 ± 12.1%
same,Calculated hemolysis ratio,[1]; [16],36.2 ± 10.8%
same,Calculated hemolysis ratio,[1]; [17],49.6 ± 15.2%
same,Calculated hemolysis ratio,[1]; [18],49.4 ± 16.9%
same,Calculated hemolysis ratio,[1]; [19],49.1 ± 22.5%
same,Calculated hemolysis ratio,[1]; [20],39.4 ± 10.7%
same,Calculated hemolysis ratio,"[1]; incubated in polypropylene tubes, 1% washed human erythrocytes, peptides 100 μM, 60 min 37 °C, 405 nm, pos. 10% Triton X-100, neg. PBS, 3 x 2 replicates",29.5 ± 6%
same,Calculated hemolysis ratio,"[1]; incubated in polystyrene tubes, 1% washed human erythrocytes, peptides 100 μM, 60 min 37 °C, 405 nm, pos. 10% Triton X-100, neg. PBS, 3 x 2 replicates",43.1 ± 18.6%
same,Calculated hemolysis ratio,"[1]; incubation 15 min, 37 °C, 1% human erythrocytes, AMPs 100 µM, 405 nm, pos. 10% Triton X-100, neg. PBS, 3 biological x 2 technical replicates",32.8 ± 12.1%
same,Calculated hemolysis ratio,"[1]; incubation 30 min, 37 °C, 1% human erythrocytes, AMPs 100 µM, 405 nm, pos. 10% Triton X-100, neg. PBS, 3 biological x 2 technical replicates",34.8 ± 12.7%
same,Calculated hemolysis ratio,"[1]; incubation 90 min, 37 °C, 1% human erythrocytes, AMPs 100 µM, 405 nm, pos. 10% Triton X-100, neg. PBS, 3 biological x 2 technical replicates",40.1 ±13.9%
same,Calculated hemolysis ratio,"[1]; incubation 120 min, 37 °C, 1% human erythrocytes, AMPs 100 µM, 405 nm, pos. 10% Triton X-100, neg. PBS, 3 biological x 2 technical replicates",47 ± 13.6%
same,Calculated hemolysis ratio,"[1]; total incubation volume 100 μL, 1% washed human erythrocytes, peptides 100 μM, 60 min 37 °C, 405 nm, pos. 10% Triton X-100, neg. PBS, 3 x 2 replicates",43.1 ± 18.6%
same,Calculated hemolysis ratio,"[1]; total incubation volume 500 μL, 1% washed human erythrocytes, peptides 100 μM, 60 min 37 °C, 405 nm, pos. 10% Triton X-100, neg. PBS, 3 x 2 replicates",31.4 ± 10.7%
same,Calculated hemolysis ratio,[2]; [21],98.2 ± 0.4%
same,Calculated hemolysis ratio,"[2]; OD 530 nm, pos. 10% SDS",38.4 ± 8.5%
same,Calculated hemolysis ratio,[2]; [22],62.8 ± 1.4%
same,Fluorescence intensity per cell of remaining intact cells (live/dead stain),[9],low fluorescence

# — publication PMC9917735, “Optimization of the Hemolysis Assay for the Assessment of Cytotoxicity” (International Journal of Molecular Sciences, 2023)
